Measured values: US20190119348A1, “PARATHYROID HORMONE RECEPTOR 1 ANTAGONIST AND INVERSE AGONIST POLYPEPTIDES AND METHODS OF THEIR USE” (The General Hospital Corporation, priority 2016, published 2019)
Like-named read-outs stand apart in the source and are kept apart here. Where a SMILES comes first, the peptide text is derived from it. [ ]: non-standard residue; d: D form. The star is where a group is joined. 5TAMRA = CN(C)c1ccc2c(c1)Oc1cc(N(C)C)ccc1C21OC(=O)c2cc(C(=O)*)ccc21

Key:
[1] = biological target: T1, PTHR1 (Homo sapiens, UniProt Q03431); test: PTHR1 binding kinetics (dissociation) in GP-2.3 cell membranes
T1 construct: expressed in transfected cells; host or cells: GP-2.3 (HEK-293 stably transfected with hPTHR1 and GloSensor)
T1 sequence (Q03431 27-593): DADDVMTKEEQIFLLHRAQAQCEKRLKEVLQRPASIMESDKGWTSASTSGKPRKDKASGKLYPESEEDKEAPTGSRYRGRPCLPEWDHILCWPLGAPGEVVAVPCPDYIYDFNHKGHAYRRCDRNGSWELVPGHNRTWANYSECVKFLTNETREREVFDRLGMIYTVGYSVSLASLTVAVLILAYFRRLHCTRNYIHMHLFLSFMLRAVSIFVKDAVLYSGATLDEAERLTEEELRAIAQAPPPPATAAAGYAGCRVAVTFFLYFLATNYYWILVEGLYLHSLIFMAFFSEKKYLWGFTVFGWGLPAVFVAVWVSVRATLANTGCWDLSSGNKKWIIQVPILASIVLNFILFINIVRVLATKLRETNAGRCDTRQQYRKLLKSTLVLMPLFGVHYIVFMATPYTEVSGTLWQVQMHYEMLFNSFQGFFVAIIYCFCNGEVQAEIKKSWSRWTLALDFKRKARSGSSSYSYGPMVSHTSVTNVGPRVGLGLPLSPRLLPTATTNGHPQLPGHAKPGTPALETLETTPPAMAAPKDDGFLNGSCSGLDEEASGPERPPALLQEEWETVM
Description: (§1) Ligand binding to the PTH1 R was assessed in intact GP-2.3 cells or membranes prepared from GP-2.3 cells using a ^125I-PTH peptide analog as tracer radioligand and were incubated at room temperature for 90 minutes. Intact cell binding reactions were performed in 96-well plates, and, following incubation, the cells were lysed with 1N NaOH, and the lysate was counted for gamma radiation. For membrane dissociation assays, reactions were assembled in 15 cc tubes, and, at times following membrane addition (t=0), aliquots were withdrawn and filtered through a well of a vacuum filtration 96-well plate, rinsed, and, after washing, the filters were removed and counted for gamma irradiation. […] Curves were fit to the data using a four-parameter sigmoidal dose-response equation.

[2] = biological target: T1, PTHR1; test: Confocal microscopy of TMR-ligand internalization in GP-2.3 cells; assay type: cell-based; settings: 15 minutes after ligand addition (100 nM)
Description: Confocal fluorescence microscopy images were acquired using Olympus FV-1000 MPE confocal system (Center Valley, Pa. 18034), performed by the Photopathology Core facility of the Wellman Center for Photomedicine at the Massachusetts General Hospital. Images were captured with a 40× (LUMPLFL 0.8NA WD 3.3 mm) water-immersion objective, and with 405 nm and 559 nm excitation lasers, at a resolution of 1024×1024.
The cells were cultured on glass cover-slips in 24-well plates to ˜75% of confluency, then treated with PTH^TMR ligand (100 nM) in Hank's balanced salts buffer with 0.1% BSA (HBB) for 15 minutes at room temperature, then rinsed thrice with HBB, fixed with 4% formalin for 5 minutes, mounted with vector-shield containing DAPI on a glass microscope slide, viewed on the microscope, and digitally imaged.

[3] = biological target: T2, PTHR1 (hPTHR1) (Homo sapiens, UniProt Q03431); test: Radioligand competition binding in GP-2.3 cells; settings: radioligand competition
T2 construct: expressed in transfected cells; host or cells: GP-2.3 (HEK-293 stably transfected with hPTHR1 and GloSensor)
T2 sequence (Q03431 27-593): T1 sequence (Q03431 27-593)
Description: as §1, with “Intact” for “Ligand binding to the PTH1 R was assessed in intact GP-2.3 cells or membranes prepared from GP-2.3 cells using a ^125I-PTH peptide analog as tracer radioligand and were incubated at room temperature for 90 minutes. Intact”
(§2) Pharmacological properties of the ligands were assessed in cells expressing the PTHR1 and the GloSensor™ cAMP reporter. The assays used GP-2.3 cells, derived from HEK293 cells by stable transfection with the hPTHR1 and GloSensor™, as well as SGS-72 cells, which are derived from the human osteosarcoma cell line, Saos-2, in which is endogenously expressed the hPTHR1, by stable transfection with GloSensor™. Binding of representative polypeptides to the PTHR1 was assessed in GP-2.3 cells by radioligand competition methods (FIGS. 1A and 1B, Table 3).
The assays were performed in GP-2.3 cells with the two tracer ^125I-radioligands shown; values are half-maximal inhibitory concentration (pIC50) and corresponding nanomolar value (below) derived from curve fitting ligand dose-response data. Data are means of four experiments.

[4] = biological target: T1, PTHR1; test: Antagonism of PTH(1-34)-induced cAMP response (GloSensor) in GP-2.3 cells; assay type: cell-based; settings: PTH(1-34) 1 nM
Description: (§3) cAMP signaling was assessed in the HEK293-derived or SaOS2-derived cell lines stably expressing the luciferase-based GloSensor™ cAMP reporter (Hattersley et al., Paper presented at: Novel Signaling Mechanisms and Bone Cell Biology 2014; Binkowski et al., Methods in molecular biology. 756:263-271). HEK-293 cells were further transfected to stably express the hPTHR1, hPTHR1-H223R, or hPTHR1-T410P. The cells were seeded into 96-well white plates and were assayed 24 to 48 hours post-confluency. Assays were performed at room temperature in CO2-independent culture media (Life Technologies, Corp., Carlsbad, Calif.) containing 0.1% BSA (CIDB). The cells were pre-loaded with luciferin (0.5 mM in CIDB) for 15 minutes, then PTH peptides were added at varying concentrations. cAMP-dependent luminescence was measured at two-minute intervals using a PerkinElmer Envision plate reader. The time at which maximum luminescence (cps) observed with agonist alone, typically at 10-20 minutes after agonist addition, was used to obtain data from wells containing antagonist with or without agonist, to thus generate antagonist ligand dose-response curves. The resulting cps values were then plotted against ligand concentration using GraphPad Prism 7.0 software and a four-parameter logistics curve fitting equation, which yielded parameters of inhibitory potency (pIC50).
as §2
z,999 concentration of antagonist that inhibited the maximum response to PTH(1-34)-induced in the absence of antagonist (at ˜40 minutes) is reported in units of -log M (pIC50), and the corresponding nanomolar value is shown below each pIC50 value. Data are means of the number of experiments indicated (n). The PTH(1-34)-induced maximum luminescence was ˜80,000 cps and the basal was ˜1,000 cps. TMR indicates Lys13 modified at epsilon amino function with TMR, P vs. inhibition by dW12,Y34-bPTH(7-34).

[5] = biological target: T3, endogenous hPTHR1 (Homo sapiens, UniProt Q03431); test: Antagonism of PTH(1-34)- and PTHrP(1-36)-induced cAMP response (GloSensor) in SGS-72 cells; assay type: cell-based
T3 construct: Saos-2, in which is endogenously expressed the hPTHR1; endogenous in cells
T3 sequence (Q03431 27-593): T1 sequence (Q03431 27-593)
Description: cAMP signaling was assessed in the HEK293-derived or SaOS2-derived cell lines stably expressing the luciferase-based GloSensorTM cAMP reporter ([…] al., Paper presented at: Novel Signaling Mechanisms and Bone Cell Biology 2014; Binkowski et al., Methods in molecular biology. 756:263-271). HEK-293 cells were further transfected to stably express the hPTHR1, hPTHR1-H223R, or hPTHR1-T410P. The cells were seeded into 96-well white plates and were assayed 24 to 48 hours post-confluency. Assays were performed at room temperature in CO2-independent culture media (Life Technologies, Corp., Carlsbad, Calif.) containing 0.1% BSA (CIDB). The cells were pre-loaded with luciferin (0.5 mM in CIDB) for 15 minutes, then PTH peptides were added at varying concentrations. cAMP-dependent luminescence was measured at two-minute intervals using a PerkinElmer Envision plate reader. The time at which maximum luminescence (cps) observed with agonist alone, typically at 10-20 minutes after agonist addition, was used to obtain data from wells containing antagonist with or without agonist, to thus generate antagonist ligand dose-response curves. The resulting cps values were then plotted against ligand concentration using GraphPad Prism 7.0 software and a four-parameter logistics curve fitting equation, which yielded parameters of inhibitory potency (pIC50). Pharmacological properties of the ligands were assessed in cells expressing the PTHR1 and the GloSensorTM cAMP reporter. The assays used GP-2.3 cells, derived from HEK293 cells by stable transfection with the hPTHR1 and GloSensorTM, as well as SGS-72 cells, which are derived from the human osteosarcoma cell line, Saos-2, in which is endogenously expressed the hPTHR1, by stable transfection with GloSensorTM. Binding of representative polypeptides to the PTHR1 was assessed in GP-2.3 cells by radioligand competition methods (FIGS. 1A and 1B, Table 3). […] In Table 5, antagonist assays were performed in SGS-72 cells (SaOS2 cells with stable GloSensorTM cAMP reporter) at room temperature. […] The mean (±sem) concentration of antagonist that inhibited the maximum agonist-induced response observed in the absence of antagonist (at 40 minutes) is reported in units of -log M (pIC50), and the corresponding nanomolar value is shown below each pIC50 value. Data are means of the number of seven experiments. The PTH(1-34)-induced maximum luminescence was 500,000 cps and the basal was 5,000 cps. TMR indicates Lys13 modified at epsilon amino function with TMR. The data are illustrated in FIG. 7A. […] Date are means (±SEM) of the number of separate experiments indicated by n.

[6] = biological target: T1, PTHR1; test: Residual agonist activity, cAMP luminescence in GP-2.3 cells; assay type: cell-based; settings: ligands applied directly to GP-2.3 cells
Description: as §3

In the case of “^125I-Nle^8, dTrp^12, Trp^23, Tyr^36-LA-PTH(5-36)-1954”, the “dissociation from the PTHR1 compared with ^125I-Tyr^36-PTHrP(5-36)-836 and ^125I-M-PTH(1-15)-779” value [1] is reported as “dissociated more slowly”.
For `CC[C@H](C)[C@H](N)C(=O)N[C@@H](CCC(N)=O)C(=O)N[C@@H](CC(C)C)C(=O)N[C@@H](CCSC)C(=O)N[C@@H](Cc1c[nH]cn1)C(=O)N[C@@H](CCC(N)=O)C(=O)N[C@@H](CCCNC(=N)N)C(=O)N[C@H](Cc1c[nH]c2ccccc12)C(=O)N[C@@H](CCCCNC(=O)c1ccc2c(c1)C(=O)OC21c2ccc(N(C)C)cc2Oc2cc(N(C)C)ccc21)C(=O)N[C@@H](Cc1c[nH]c2ccccc12)C(=O)N[C@H](C(=O)N[C@@H](CCC(N)=O)C(=O)N[C@@H](CC(=O)O)C(=O)N[C@@H](C)C(=O)N[C@@H](CCCNC(=N)N)C(=O)N[C@@H](CCCNC(=N)N)C(=O)N[C@@H](CCCNC(=N)N)C(=O)N[C@@H](C)C(=O)N[C@@H](Cc1c[nH]c2ccccc12)C(=O)N[C@@H](CC(C)C)C(=O)N[C@@H](Cc1c[nH]cn1)C(=O)N[C@@H](CCCCN)C(=O)N[C@@H](CC(C)C)C(=O)N[C@H](C(=O)N[C@@H](C)C(=O)N[C@@H](CCC(=O)O)C(=O)N[C@H](C(=O)N[C@@H](Cc1c[nH]cn1)C(=O)N[C@H](C(=O)N[C@@H](C)C(=O)N[C@@H](CCC(=O)O)C(=O)N[C@H](C(N)=O)[C@@H](C)CC)[C@@H](C)O)[C@@H](C)CC)[C@@H](C)CC)[C@@H](C)CC` [compound 1953, TMR-dW12, W23-LA-PTH(5-36)] (H-IQLMHQR[dW]K(5TAMRA)WIQDARRRAWLHKLIAEIHTAEI-NH2; N-terminus assumed), the “ligand internalization (TMR fluorescence)” value [2] was “did not internalize”.
For `CC[C@H](C)[C@H](N)C(=O)N[C@@H](CCC(N)=O)C(=O)N[C@@H](CC(C)C)C(=O)N[C@@H](CCSC)C(=O)N[C@@H](Cc1c[nH]cn1)C(=O)N[C@@H](CCC(N)=O)C(=O)N[C@@H](CCCNC(=N)N)C(=O)N[C@@H](C)C(=O)N[C@@H](CCCCN)C(=O)N[C@@H](Cc1c[nH]c2ccccc12)C(=O)N[C@H](C(=O)N[C@@H](CCC(N)=O)C(=O)N[C@@H](CC(=O)O)C(=O)N[C@@H](C)C(=O)N[C@@H](CCCNC(=N)N)C(=O)N[C@@H](CCCNC(=N)N)C(=O)N[C@@H](CCCNC(=N)N)C(=O)N[C@@H](C)C(=O)N[C@@H](Cc1ccccc1)C(=O)N[C@@H](CC(C)C)C(=O)N[C@@H](Cc1c[nH]cn1)C(=O)N[C@@H](CCCCN)C(=O)N[C@@H](CC(C)C)C(=O)N[C@H](C(=O)N[C@@H](C)C(=O)N[C@@H](CCC(=O)O)C(=O)N[C@H](C(=O)N[C@@H](Cc1c[nH]cn1)C(=O)N[C@H](C(=O)N[C@@H](C)C(=O)N[C@@H](CCC(=O)O)C(=O)N[C@H](C(N)=O)[C@@H](C)CC)[C@@H](C)O)[C@@H](C)CC)[C@@H](C)CC)[C@@H](C)CC` [compound 1950, LA-PTH(5-36)] (H-IQLMHQRAKWIQDARRRAFLHKLIAEIHTAEI-NH2; N-terminus assumed), the “apparent PTHR1 affinity compared with dTrp^12-PTH(7-34)-1894” value [3] was “at least as strong”, the “fold more effective inhibition than dTrp^12-PTH(7-34)-1894” value [4] was “five” and the IC50 ([4]; pIC50, inhibition of cAMP signal induced by PTH(1-34)) was 100 nM. For the same compound, the “fold more effective inhibition than dTrp^12-PTH(7-34)-1894” value ([5]; PTH(1-34) 0.3 nM) was roughly 30 fold, the IC50 ([5]; antagonist pre-treatment 10 minutes, PTHrP(1-36) 0.3 nM, seven experiments, read-out: corresponding nanomolar value vs. PTHrP(1-36) (Table 5)) was 1 nM and the IC50 ([5]; antagonist pre-treatment 10 minutes, PTHrP(1-36) 0.3 nM, seven experiments, read-out: pIC50 vs. PTHrP(1-36) (Table 5) (converted)) was 0.871 nM. The IC50 ([5]; corresponding nanomolar value vs. PTH(1-34) (Table 5), antagonist pre-treatment 10 minutes, PTH(1-34) 0.3 nM, seven experiments) was 1 nM, the IC50 ([5]; pIC50, inhibition of cAMP signal induced by PTH(1-34), PTH(1-34) 0.3 nM) was 2.51 nM and the IC50 ([5]; pIC50 vs. PTH(1-34) (Table 5), antagonist pre-treatment 10 minutes, PTH(1-34) 0.3 nM, seven experiments) was 0.832 nM. For the same compound, the “residual agonist activity compared with dTrp^12-PTH(7-34)-1894” value [6] was “less residual agonist activity”.
